Where a name gives a salt, the structure may show the parent alone. Read-outs that look alike come from different tables or passages of the source.
Biological target: AaDOP2 (Aedes aegypti, UniProt H6D5H2)
Assay: AaDOP2 antagonist screen of the LOPAC1280 library (HEK-CRELuc-Aadop2 cells, luminescence)
Assay type: cell-based
[1] = 10 µM compound, 300 nM dopamine, 2 hr, hit = compound effect <20

AaDOP2, sequence (H6D5H2 1-476): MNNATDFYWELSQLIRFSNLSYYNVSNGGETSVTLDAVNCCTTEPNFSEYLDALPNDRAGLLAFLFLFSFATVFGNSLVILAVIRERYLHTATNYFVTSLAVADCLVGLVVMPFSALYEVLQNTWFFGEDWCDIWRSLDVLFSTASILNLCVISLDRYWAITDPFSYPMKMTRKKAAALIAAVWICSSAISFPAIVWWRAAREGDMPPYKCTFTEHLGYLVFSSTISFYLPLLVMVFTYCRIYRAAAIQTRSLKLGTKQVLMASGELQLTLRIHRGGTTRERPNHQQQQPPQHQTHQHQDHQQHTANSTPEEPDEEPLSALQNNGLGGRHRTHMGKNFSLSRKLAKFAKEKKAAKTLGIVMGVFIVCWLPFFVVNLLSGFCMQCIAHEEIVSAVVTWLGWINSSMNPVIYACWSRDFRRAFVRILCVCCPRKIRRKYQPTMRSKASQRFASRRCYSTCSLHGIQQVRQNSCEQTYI

Row | SMILES | Compound effect (percent receptor signaling in presence of test compound, relative lux units relative to the SCH23390 control) | Compound effect (percent receptor signaling in presence of test compound, relative lux units relative to the SCH23390 control) [1]
1 | COc1cc(/C=C(\C#N)C(=O)c2ccc(O)c(O)c2)cc(I)c1O [Compound 1206, I-OMe-Tyrphostin AG 538] | 96 | 
2 | N#C/C(=C\c1ccc(O)c(O)c1)C(=O)c1ccc(O)c(O)c1 [Compound 1207, Tyrphostin AG 538] | 75 | 
3 | COc1cc(Cc2cnc(N)nc2N)cc(OC)c1OC [Compound 1208, Trimethoprim] | 92 | 
4 | CNCC[C@@H](Oc1ccccc1C)c1ccccc1 [Compound 1209, Tomoxetine] | 79 | 
5 | COC(=O)c1c(-c2cc(OC)c(OC)c(OC)c2)c2ccnc(OCc3ncccn3)c2c(=O)n1Cc1ccnc(C)c1 [Compound 1210, T-0156] | 56 | 
6 | CN1[C@@H]2CC[C@H]1C[C@@H](OC(=O)c1cc(Cl)cc(Cl)c1)C2 [Compound 1211, 3-Tropanyl-3,5-dichlorobenzoate] | 97 | 
7 | S=C([S-])OC1CC2CC1C1CCCC21.[K+] [Compound 1213, D-609 potassium] |  | 87%
8 | C/C=C(/C)C(=O)O[C@H]1C(C)=C2[C@H]([C@@H]1OC(=O)CCCCCCC)[C@@](C)(OC(C)=O)C[C@H](OC(=O)CCC)[C@@]1(O)[C@H]2OC(=O)[C@@]1(C)O [Compound 1215, Thapsigargin] | 103 | 
9 | N#CC(C#N)=Cc1ccc([N+](=O)[O-])c(O)c1 [Compound 1216, Tyrphostin AG 126] | 100 | 
10 | CC/C(=C(\c1ccccc1)c1ccc(OCCN(C)C)cc1)c1ccccc1 [Compound 1217, Tamoxifen citrate] | 87 | 
11 | CC(C)(C)c1ccc(C(O)CCCN2CCC(C(O)(c3ccccc3)c3ccccc3)CC2)cc1 (stereo not drawn) [Compound 1218, Terfenadine] | 41 | 
12 | Cl.O=c1[nH]oc2c1CCNC2 [Compound 1220, THIP hydrochloride] | 95 | 
13 | O=C(CCCN1CCC(O)(c2cccc(C(F)(F)F)c2)CC1)c1ccc(F)cc1 [Compound 1221, Trifluperidol hydrochloride] | 68 | 
14 | CN1[C@@H]2CC[C@H]1CC(OC(=O)c1c[nH]c3ccccc13)C2.Cl (stereo partly drawn) [Compound 1222, 3-Tropanyl-indole-3-carboxylate hydrochloride] | 89 | 
15 | CCCCNc1c(C(=O)OCC)c(C)nc2c1cnn2CC [Compound 1223, Tracazolate] | 113 | 
16 | C[N+]1(C)C2CCC1CC(OC(=O)c1c[nH]c3ccccc13)C2.[I-] (stereo not drawn) [Compound 1224, 3-Tropanylindole-3-carboxylate methiodide] | 91 | 
17 | Cc1scc2c1N(C(=O)CN1CCN(C)CC1)c1ccccc1NC2=O [Compound 1225, Telenzepine dihydrochloride] | 77 | 
18 | S=C(NC1CCCCC1)N1CCC(c2cnc[nH]2)CC1 [Compound 1226, Thioperamide maleate] | 90 | 
19 | CCN(CC)C(=O)N[C@H]1C[C@@H]2c3cccc4[nH]cc(c34)C[C@H]2N(C)C1 [Compound 1228, R(+)-Terguride] |  | 73%
20 | CC(C)(C)c1cc(C=C(C#N)C#N)cc(C(C)(C)C)c1O [Compound 1230, Tyrphostin A9] | 25 | 
21 | CP(=O)(O)C1=CCNCC1 [Compound 1231, TPMPA] | 112 | 
22 | CCCCC/C=C\C[C@@H](O)/C=C/c1cccc(C[C@@H](O)CCCCO)n1 [Compound 1232, U-75302] | 107 | 
23 | O=c1ccn([C@@H]2O[C@H](COP(=O)([O-])OP(=O)([O-])[O-])[C@@H](O)[C@H]2O)c(=O)[nH]1.[Na+].[Na+].[Na+] [Compound 1233, Uridine 5'-diphosphate sodium] | 78 | 
24 | C[C@]12C=CC(=O)C=C1CC[C@@H]1C2=CC[C@]2(C)[C@@H](C(=O)CN3CCN(c4cc(N5CCCC5)nc(N5CCCC5)n4)CC3)CC[C@@H]12.O=C(O)/C=C\C(=O)O [Compound 1234, U-74389G maleate] | 88 | 

Row | SMILES | Compound effect (percent receptor signaling in presence of test compound, relative lux units relative to the SCH23390 control) | Compound effect (percent receptor signaling in presence of test compound, relative lux units relative to the SCH23390 control) [1]
25 | Cc1c(C)c2c(c(C)c1O)CCC(C)(CN1CCN(c3cc(N4CCCC4)nc(N4CCCC4)n3)CC1)O2.Cl.Cl (stereo not drawn) [Compound 1235, U-83836 dihydrochloride] | 103 | 
26 | COc1ccc2c(c1)CC[C@@H]1[C@@H]2CC[C@]2(C)[C@@H](NCCCCCCN3C(=O)C=CC3=O)CC[C@@H]12 [Compound 1236, U-73122] | 80 | 
27 | O=C(O)C=Cc1c[nH]cn1 [Compound 1238, 4-Imidazoleacrylic acid] | 74 | 
28 | COc1ccccc1N1CCN(CCCNc2cc(=O)n(C)c(=O)n2C)CC1 [Compound 1239, Urapidil hydrochloride] | 94 | 
29 | COc1ccccc1N1CCN(CCCNc2c(C)c(=O)n(C)c(=O)n2C)CC1 [Compound 1240, Urapidil, 5-Methyl-] | 91 | 
30 | Brc1c(NC2=NCCN2)ccc2nccnc12 [Compound 1242, UK 14,304] | 87 | 
31 | CCCN(CCC)[C@H]1CCc2c(F)ccc(O)c2C1.Cl [Compound 1244, S(-)-UH-301 hydrochloride] | 90 | 
32 | CCCN(CCC)[C@@H]1CCc2c(F)ccc(O)c2C1.Cl [Compound 1245, R(+)-UH-301 hydrochloride] | 97 | 
33 | CCCN(CCC)C1Cc2cc(OC)c(OC)cc2C1.O=C(O)/C=C\C(=O)O [Compound 1249, U-99194A maleate] | 97 | 
34 | N#CC(=C(/N)Sc1ccccc1N)/C(C#N)=C(/N)Sc1ccccc1N [Compound 1250, U0126] | 108 | 
35 | CC[C@]1(O)C[C@@H]2CN(CCc3c([nH]c4ccccc34)[C@@](C(=O)OC)(c3cc4c(cc3OC)N(C)[C@H]3[C@@](O)(C(=O)OC)[C@H](OC(C)=O)[C@]5(CC)C=CCN6CC[C@]43[C@@H]65)C2)C1.O=S(=O)(O)O [Compound 1251, Vinblastine sulfate salt] | 118 | 
36 | COc1ccccc1NC(=O)Nc1nc(-c2cccnc2)nc2ccccc12 [Compound 1253, VUF 5574] | 111 | 
37 | CCOC(=O)C1=C[C@]2(CC)CCCN3CCc4c(n1c1ccccc41)[C@@H]32 [Compound 1254, Vinpocetine] | 148 | 
38 | CC[C@]1(O)C[C@H]2CN(CCc3c([nH]c4ccccc34)[C@@](C(=O)OC)(c3cc4c(cc3OC)N(C=O)[C@H]3[C@@](O)(C(=O)OC)[C@H](OC(C)=O)[C@]5(CC)C=CCN6CC[C@]43[C@@H]65)C2)C1 [Compound 1257, Vincristine sulfate] | 98 | 
39 | COc1cc2ncnc(Nc3ccc(O)cc3)c2cc1OC [Compound 1260, WHI-P131] | 90 | 
40 | COC[C@H]1OC(=O)c2coc3c2[C@@]1(C)C1=C(C3=O)[C@@H]2CCC(=O)[C@@]2(C)C[C@H]1OC(C)=O [Compound 1261, Wortmannin from Penicillium funiculosum] | 42 | 
41 | CC(N)=NCc1cccc(CN)c1.Cl.Cl [Compound 1262, 1400W dihydrochloride] | 96 | 
42 | CS(=O)(=O)O.Cc1c(C(=O)c2cccc3ccccc23)c2cccc3c2n1[C@H](CN1CCOCC1)CO3 [Compound 1264, (R)-(+)-WIN 55,212-2 mesylate] | 58 | 
43 | C#C[C@]1(O)CC[C@H]2[C@@H]3CCC4=Cc5nc6nc7ccccc7n6cc5C[C@]4(C)[C@H]3CC[C@@]21C [Compound 1265, WIN 62,577] | 59 | 
44 | N[C@@H](Cn1ccc(=O)[nH]c1=O)C(=O)O [Compound 1266, S(-)-Willardiine] |  | 99%
45 | COc1ccccc1N1CCN(CCN(C(=O)C2CCCCC2)c2ccccn2)CC1.O=C(O)/C=C\C(=O)O [Compound 1267, WAY-100635 maleate] |  | 101%
46 | N[C@@H](Cn1cc(I)c(=O)[nH]c1=O)C(=O)O [Compound 1268, S-5-Iodowillardiine] |  | 130%
47 | Cc1cccc(C)c1N=C1NCCCS1 [Compound 1269, Xylazine hydrochloride] | 134 | 
48 | O=C(NCCNCC(O)COc1ccc(O)cc1)N1CCOCC1 (stereo not drawn) [Compound 1270, Xamoterol hemifumarate] | 112 | 

Reference: article PMC3265452 (PLoS Neglected Tropical Diseases, 2012)
